Reference: article PMC3220813 (Cancer Chemotherapy and Pharmacology, 2011)
Converted amounts (≈) assume the structure as drawn. Where two headings read alike, the source gives them in different places. Marks after values point to notes of the source that are not given here.

Columns and labels:
[1] = cited from earlier work; for increase in drug exposure with a high-fat meal: CI-1040 at 800 and 1,600 mg
[2] = cited from earlier work
purified MEK1 = conditions: cited from earlier work
[3] = type: in vivo, human; conditions: for AUC0–t, geometric mean / AUC, geometric mean / Cmax, geometric mean / t1/2, geometric mean / tmax, median / CL/F, geometric mean / Vd/F: PP population; for time up to which measurable plasma concentrations were observed: both fed and fasted periods; for Vd/F: Vz/F, geometric mean
[4] = Classification by permeability and solubility; conditions: tentative; class IV = low permeability and low solubility
[5] = test system: advanced solid malignancies; experiment: Objective tumor response by RECIST 1.0; type: in vivo, human; conditions: 28 evaluable patients, both cutaneous melanoma
Caco-2 cells = conditions: ref data on file; cited from earlier work
Safety and tolerability = type: in vivo, human
[6] = test system: various other kinases, enzymes, receptors, ion channels, and transporters; conditions: cited from earlier work
[7] = in vivo; cited from earlier work
[8] = ref data on file, cited from earlier work
[9] = Fasted, metabolite after 75 mg selumetinib
[10] = Fed, metabolite after 75 mg selumetinib
[11] = AEs ≥10% of patients, safety population N = 30
[12] = reported in ≥2 patients, safety population, Total (N = 11)

## O=C(NOCC1CC1)c1ccc(F)c(F)c1Nc1ccc(I)cc1Cl [CI-1040]
[1]
  increase in drug exposure with a high-fat meal: 4.5 fold
[1]; administered with food
  MTD and recommended Phase II dose (RP2D): 800 mg BID

## O=C(NOCCO)c1cc2nc[nH]c2c(F)c1Nc1ccc(Br)cc1Cl [N-desmethyl-selumetinib]
[2]; plasma metabolite exposure
  AUC relative to parent compound: < 15%
  Cmax relative to parent compound: < 15%
Purified MEK1; in vitro
  greater potency for MEK1 inhibition than selumetinib: 3- to 5 fold
[3]; [9]
  AUC0–t, geometric mean: 376.4 ng/h/mL
  AUC, geometric mean: 418.4 ng·h/mL
  Cmax, geometric mean: 73.9 ng/mL
  t1/2, geometric mean: 7.7 h
  tmax, median: 1.50^a h
[3]; [10]
  AUC0–t, geometric mean: 282.4 ng/h/mL
  AUC, geometric mean: 379.1 ng·h/mL
  Cmax, geometric mean: 33.5 ng/mL
  t1/2, geometric mean: 6.8 h
  tmax, median: 4.0^a h
[3]
  time up to which measurable plasma concentrations were observed: up to 24 h
[3]; fasted state
  ratio of N-desmethyl-selumetinib to selumetinib (metabolite to parent): 0.07
[3]; fed state
  ratio of N-desmethyl-selumetinib to selumetinib (metabolite to parent): 0.06
[3]; metabolite after 75 mg selumetinib
  delay of median tmax in the fed condition: approximately 3 h

## O=C(O)c1ccc(F)c(F)c1Nc1ccc(I)cc1Cl [PD-0184264]
[1]
  increase in drug exposure with a high-fat meal: 5 fold

## Cn1cnc2c(F)c(Nc3ccc(Br)cc3Cl)c(C(N)=O)cc21 [selumetinib amide]
Purified MEK1
  less active than selumetinib: up to 50 fold

## Cn1cnc2c(F)c(Nc3ccc(Br)cc3Cl)c(C(=O)NOCCO)cc21 [selumetinib]
[4]
  class (permeability/solubility classification): tentative class IV
[2]; across studied dose range
  total body clearance from plasma after an oral dose (CL/F): 12 to 23 L/h
  volume of distribution at steady state (Vss/F): 87 to 126 L
[2]; single dose
  terminal elimination half-life (t1/2): 5 to 8 h
Purified MEK1; read-out: IC50 against purified MEK1
  IC50: 14 nM
[5]
  partial responses: 7.1%
Caco-2 cells
  permeability across Caco-2 cells: moderate permeability
[3]; 75 mg, fed minus fasted
  delay of median tmax in the presence of food: approximately 2.5 h
[3]; Fasted
  CL/F, geometric mean: 12.9 L/h
[3]; Fed
  CL/F, geometric mean: 16.0 L/h
[3]
  time up to which measurable plasma concentrations were observed: up to 48 h
[3]; human, plasma, oral, 75 mg
  AUC(0-t): 5640 ng·h/mL
[3]; human, plasma, oral, 75 mg, Fasted
  Vd/F: 175 L
[3]; human, plasma, oral, 75 mg, Fed
  Vd/F: 199 L
Safety and tolerability; 75 mg, advanced cancer population
  tolerability / safety profile: well tolerated
Safety and tolerability; [11]
  Abdominal pain, number (%) of patients: 8 (26.7) Number (%) of patients
  Anemia, number (%) of patients: 7 (23.3) Number (%) of patients
  Constipation, number (%) of patients: 11 (36.7) Number (%) of patients
  Diarrhea, number (%) of patients: 14 (46.7) Number (%) of patients
  Dizziness, number (%) of patients: 8 (26.7) Number (%) of patients
  Dyspnoea, number (%) of patients: 10 (33.3) Number (%) of patients
  Edema peripheral, number (%) of patients: 7 (23.3) Number (%) of patients
  Fatigue, number (%) of patients: 13 (43.3) Number (%) of patients
  Headache, number (%) of patients: 7 (23.3) Number (%) of patients
  Nausea, number (%) of patients: 18 (60.0) Number (%) of patients
  Rash, number (%) of patients: 16 (53.3) Number (%) of patients
  Vomiting, number (%) of patients: 9 (30.0) Number (%) of patients
Safety and tolerability; extension part, 75 mg BD, largely due to AEs (n = 6)
  patients with one or more dose reductions: 10 patients
Safety and tolerability; intestinal perforation due to disease progression
  patients who died whilst on study: 3.3%
Safety and tolerability; not considered causally related to study treatment
  patients with grade 4 AEs: 6.7%
Safety and tolerability; overall safety population, 30 patients
  patients reporting an AE of grade 3 or higher: 60.0%
Safety and tolerability; [12]
  Abdominal pain, SAE of ≥CTC grade 3, number (%) of patients: 2 (6.7) Number (%) of patients
  Anemia, SAE of ≥CTC grade 3, number (%) of patients: 2 (6.7) Number (%) of patients
  Constipation, SAE of ≥CTC grade 3, number (%) of patients: 2 (6.7) Number (%) of patients
  Dyspnoea, SAE of ≥CTC grade 3, number (%) of patients: 3 (10.0) Number (%) of patients
  Vomiting, SAE of ≥CTC grade 3, number (%) of patients: 2 (6.7) Number (%) of patients
[6]
  activity against various other kinases, enzymes, receptors, ion channels, and transporters: did not show significant activity
[7]
  route of excretion: predominantly via the feces
[8]; pH1
  solubility: 274 µg/mL (≈ 599 µM)
[8]; pH 7.4
  solubility: 3.4 µg/mL (≈ 7.43 µM)
